# Source: patent US20130261077A1 (priority 2012, published 2013)
# Target: T1, FimH-CRD (Escherichia coli, UniProt P08191)
# T1 construct: The first 177 amino acids of the FimH protein; thrombin tag (printed as 'fusion protein with thrombin') (cleaved yes); made in house; host or cells: bacteria (pET21b plasmid)
# Assay: Competitive binding assay by fluorescence polarization, assay 1 (compounds prepared by manual serial dilution)
# Procedure: The first 177 amino acids of the FimH protein were expressed as a fusion protein with thrombin in a pET21b plasmid in bacteria. This FimH protein sequence contains the carbohydrate recognition domain (CRD) and shall be termed FimH-CRD. Following bacterial expression of the protein, the FimH-CRD protein was purified to homogeneity and the thrombin tag removed by protease cleavage. A competitive binding assay by fluorescence polarization was performed using 5 nM of the Alexa 647 mannoside probe and 60 nM of the FimH-CRD. The samples are assayed in a low volume 384 well microtiter plate in a final volume of 20 μl. The final assay buffer conditions are the following, 50 mM Tris-Cl, ph 7.0, 100 mM NaCl, 1 mM EDTA, 5 mM β-mercaptoethanol, 0.05% BSA and 2.5% DMSO. Two assays are performed for FimH, termed assay 1 or assay 2. The assay conditions are the same for both assays except the following: assay 1 has compounds prepared by manual dilution in a serial dilution factor with 12-point dose response while assay 2 has compounds prepared by a robotics system also through a serial dilution factor (12 point dose response) and initially prepared in duplicate in 384 well-Corning polypropylene round bottom plates. The assay 2 plates have compound which is then frozen and must be thawed prior to use. Initially the Alexa 647 probe and the FimH-CRD are added to the assay buffer and then 0.5 μl of test compound (assay 1 or 2) between 0.4 nM to 75 μM final concentration are added (12 point titration with 3-fold serial dilution). Control wells for the Alexa 647 probe are prepared with the same conditions except for the addition of the FimH-CRD protein. Plates are then incubated for 5 hrs at room temperature in the dark and under humid conditions to prevent drying. Plates are read using the SpectraMax Paradigm multi-mode plate reader and the appropriate fluorescent polarization detection cartridge (Alexa-647).
# Alexa 647 mannoside probe is prepared using the similar procedure reported for FAM mannoside (Han, Z. et. al., 2010, J. Med. Chem., 53, 4779) and is described in the scheme below.
# To a blue colored stirred solution of (2S,3S,4S,5S,6R)-2-(4-aminobutoxy)-6-(hydroxymethyl)tetrahydropyran-3,4,5-triol (2.21 mg, 0.009 mmol) and the (2E)-2-[(2E,4E)-5-[3,3-dimethyl-5-sulfonato-1-(3-sulfonatopropyl)indol-1-ium-2-yl]penta-2,4-dienylidene]-3-[6-(2,5-dioxopyrrolidin-1-yl)oxy-6-oxo-hexyl]-3-methyl-1-(3-sulfonatopropyl)indoline-5-sulfonate (Potassium Ion (3)) (4.9 mg, 0.0044 mmol) in DMF (44 μL) is added Et3N (5.4 mg, 7.0 μL, 0.053 mmol) at RT. The solution is stirred at room temperature over night, concentrated, dissolved in water and purified on 12 g C-18 silica gel cartridge on Isolera system using acetonitrile in water (0 to 40%, 10 CV) and followed by lyophilization to afford Alexa 647 mannoside probe (3.3 mg, 34%) as deep blue solid.
# The Kd values of the compounds are determined from dose response curves using twelve concentrations per compound in duplicate. Curves are fitted to data points using Fluorescence Polarization competitive displacement analysis, and Kds are interpolated from the resulting curves using GraphPad Prism software, version […] (GraphPad software Inc., San Diego, Calif., USA).
# T1 sequence (P08191 22-177): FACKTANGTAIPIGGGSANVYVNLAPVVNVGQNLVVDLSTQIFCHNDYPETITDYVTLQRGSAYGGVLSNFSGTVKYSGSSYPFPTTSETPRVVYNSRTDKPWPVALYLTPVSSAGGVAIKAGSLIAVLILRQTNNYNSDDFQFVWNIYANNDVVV
SMILES,IC50,Kd
"OC[C@H]1O[C@H](c2cccc(O)c2)[C@@H](O)[C@@H](O)[C@@H]1O [Compound 1, (2R,3S,4R,5S,6R)-2-(hydroxymethyl)-6-(3-hydroxyphenyl)tetrahydropyran-3,4,5-triol]",53 nM,12.3 ± 5.1 nM
"CNC(=O)c1ccc(-c2cccc([C@H]3O[C@H](CO)[C@@H](O)[C@H](O)[C@@H]3O)c2)cc1 [Compound 2, N-methyl-4-[3-[(2R,3S,4R,5S,6R)-3,4,5-trihydroxy-6-(hydroxymethyl)tetrahydropyran-2-yl]phenyl]benzamide]",29 nM,< 5 nM
"CNC(=O)c1ccc(Oc2cccc([C@H]3O[C@H](CO)[C@@H](O)[C@H](O)[C@@H]3O)c2)cc1 [Compound 3, N-methyl-4-[3-[(2R,3S,4R,5S,6R)-3,4,5-trihydroxy-6-(hydroxymethyl)tetrahydropyran-2-yl]phenoxy]benzamide]",39 nM,7.2 ± 1.1 nM
"CNC(=O)c1cccc(Oc2cccc([C@H]3O[C@H](CO)[C@@H](O)[C@H](O)[C@@H]3O)c2)c1 [Compound 5, N-methyl-3-[3-[(2R,3S,4R,5S,6R)-3,4,5-trihydroxy-6-(hydroxymethyl)tetrahydropyran-2-yl]phenoxy]benzamide]",18 nM,< 5 nM
"Cc1ccc(-c2cccc([C@H]3O[C@H](CO)[C@@H](O)[C@H](O)[C@@H]3O)c2)cc1 [Compound 6, (2R,3S,4R,5S,6R)-2-(hydroxymethyl)-6-(4′-methyl-[1,1′-biphenyl]-3-yl)tetrahydro-2H-pyran-3,4,5-triol]",87 nM,13.7 ± 7.7 nM
"CC(=O)Nc1cccc(-c2cccc([C@H]3O[C@H](CO)[C@@H](O)[C@H](O)[C@@H]3O)c2)c1 [Compound 7, N-[3-[3-[(2R,3S,4R,5S,6R)-3,4,5-trihydroxy-6-(hydroxymethyl)tetrahydropyran-2-yl]phenyl]phenyl]acetamide]",70 nM,14.3 ± 9.1 nM
"OC[C@H]1O[C@H](c2cccc(-c3ccsc3)c2)[C@@H](O)[C@@H](O)[C@@H]1O [Compound 8, (2R,3S,4R,5S,6R)-2-(hydroxymethyl)-6-[3-(3-thienyl)phenyl]tetrahydropyran-3,4,5-triol]",155 nM,40.1 ± 17.1 nM
"OC[C@H]1O[C@H](c2cccc(-c3cccnc3)c2)[C@@H](O)[C@@H](O)[C@@H]1O [Compound 9, (2R,3S,4R,5S,6R)-2-(hydroxymethyl)-6-[3-(3-pyridyl)phenyl]tetrahydropyran-3,4,5-triol]",163 nM,28.5 ± 23.7 nM
"OC[C@H]1O[C@H](c2cccc(-c3ccc4c(c3)OCO4)c2)[C@@H](O)[C@@H](O)[C@@H]1O [Compound 11, (2R,3S,4R,5S,6R)-2-[3-(1,3-benzodioxol-5-yl)phenyl]-6-(hydroxymethyl)tetrahydropyran-3,4,5-triol]",88 nM,11.9 ± 7.3 nM
"OCc1ccccc1-c1cccc([C@H]2O[C@H](CO)[C@@H](O)[C@H](O)[C@@H]2O)c1 [Compound 13, (2R,3S,4R,5S,6R)-2-(hydroxymethyl)-6-(2′-(hydroxymethyl)-[1,1′-biphenyl]-3-yl)tetrahydro-2H-pyran-3,4,5-triol]",195 nM,39.9 ± 23.6 nM
"CN(C)Cc1ccccc1-c1cccc([C@H]2O[C@H](CO)[C@@H](O)[C@H](O)[C@@H]2O)c1 [Compound 14, (2R,3S,4R,5S,6R)-2-(2′-((dimethylamino)methyl)-[1,1′-biphenyl]-3-yl)-6-(hydroxymethyl)tetrahydro-2H-pyran-3,4,5-triol]",551 nM,77.8 ± 70.4 nM
OC[C@H]1O[C@H](c2cccc(-c3ccc4[nH]ccc4c3)c2)[C@@H](O)[C@@H](O)[C@@H]1O [Compound 15],306 nM,48.2 ± 47.7 nM
"Nc1cccc(-c2cccc([C@H]3O[C@H](CO)[C@@H](O)[C@H](O)[C@@H]3O)c2)c1 [Compound 16, (2R,3S,4R,5S,6R)-2-[3-(3-aminophenyl)phenyl]-6-(hydroxymethyl)tetrahydropyran-3,4,5-triol]",247 nM,37 ± 33.7 nM
"OC[C@H]1O[C@H](c2cccc(-c3ccc4cc(O)ccc4c3)c2)[C@@H](O)[C@@H](O)[C@@H]1O [Compound 17, (2R,3S,4R,5S,6R)-2-(hydroxymethyl)-6-[3-(6-hydroxy-2-naphthyl)phenyl]tetrahydropyran-3,4,5-triol]",48 nM,8.6 ± 2.5 nM
"Cn1nc(C(F)(F)F)cc1-c1cccc([C@H]2O[C@H](CO)[C@@H](O)[C@H](O)[C@@H]2O)c1 [Compound 18, (2R,3S,4R,5S,6R)-2-(hydroxymethyl)-6-(3-(1-methyl-3-(trifluoromethyl)-1H-pyrazol-5-yl)phenyl)tetrahydro-2H-pyran-3,4,5-triol]",160 nM,33.7 ± 15.8 nM
CCCOc1ccc(F)c(-c2cccc([C@H]3O[C@H](CO)[C@@H](O)[C@H](O)[C@@H]3O)c2)c1 [Compound 19],52 nM,6.2 ± 1.2 nM
"OC[C@H]1O[C@H](c2cccc(-c3ccc4c(c3)OCCO4)c2)[C@@H](O)[C@@H](O)[C@@H]1O [Compound 20, (2R,3S,4R,5S,6R)-2-(3-(2,3-dihydrobenzo[b][1,4]dioxin-6-yl)phenyl)-6-(hydroxymethyl)tetrahydro-2H-pyran-3,4,5-triol]",55 nM,7.1 ± 2.4 nM
CS(=O)(=O)c1ccc(-c2cccc([C@H]3O[C@H](CO)[C@@H](O)[C@H](O)[C@@H]3O)c2)cc1 [Compound 21],92 nM,12.3 ± 5.1 nM
"O=C(Nc1ccccc1)c1cccc([C@H]2O[C@H](CO)[C@@H](O)[C@H](O)[C@@H]2O)c1 [Compound 23, N-phenyl-3-[(2R,3S,4R,5S,6R)-3,4,5-trihydroxy-6-(hydroxymethyl)tetrahydropyran-2-yl]benzamide]",16 nM,38.4 ± 23.6 nM
"Cc1cc(NC(=O)c2cccc([C@H]3O[C@H](CO)[C@@H](O)[C@H](O)[C@@H]3O)c2)n(Cc2ccccc2)n1 [Compound 24, N-(1-benzyl-3-methyl-1H-pyrazol-5-yl)-3-((2R,3S,4R,5S,6R)-3,4,5-trihydroxy-6-(hydroxymethyl)tetrahydro-2H-pyran-2-yl)benzamide]",243 nM,56.7 ± 0.2 nM
"Cc1nnc(NC(=O)c2cccc([C@H]3O[C@H](CO)[C@@H](O)[C@H](O)[C@@H]3O)c2)s1 [Compound 25, N-(5-methyl-1,3,4-thiadiazol-2-yl)-3-((2R,3S,4R,5S,6R)-3,4,5-trihydroxy-6-(hydroxymethyl)tetrahydro-2H-pyran-2-yl)benzamide]",36 nM,7 ± 0.5 nM
"O=C(Nc1ccc2ncccc2c1)c1cccc([C@H]2O[C@H](CO)[C@@H](O)[C@H](O)[C@@H]2O)c1 [Compound 26, N-(quinolin-6-yl)-3-((2R,3S,4R,5S,6R)-3,4,5-trihydroxy-6-(hydroxymethyl)tetrahydro-2H-pyran-2-yl)benzamide]",100 nM,16.8 ± 7.8 nM
"O=C(Nc1ccc2[nH]ccc2c1)c1cccc([C@H]2O[C@H](CO)[C@@H](O)[C@H](O)[C@@H]2O)c1 [Compound 27, N-(1H-indol-5-yl)-3-((2R,3S,4R,5S,6R)-3,4,5-trihydroxy-6-(hydroxymethyl)tetrahydro-2H-pyran-2-yl)benzamide]",138 nM,37 ± 3.1 nM
"Cc1cnc(NC(=O)c2cccc([C@H]3O[C@H](CO)[C@@H](O)[C@H](O)[C@@H]3O)c2)s1 [Compound 28, N-(5-methylthiazol-2-yl)-3-((2R,3S,4R,5S,6R)-3,4,5-trihydroxy-6-(hydroxymethyl)tetrahydro-2H-pyran-2-yl)benzamide]",56 nM,16.7 ± 7.5 nM
